In patent publication US10676429B2, “Sulfamoyl-arylamides and the use thereof as medicaments for the treatment of hepatitis B” (priority 2012, dated 2020):

Tests used:
[1] = tested on: HBV; experiment: Anti-HBV activity in stable transfected HepG2.2.15 cell line (HBV DNA from secreted virions, realtime PCR); assay type: cell-based; conditions: Hepatitis B virus, HepG2.2.15, 144 h
[2] = tested on: HBV; experiment: Anti-HBV activity in HepG2.117 cell line (Tet-off, intracellular HBV DNA, realtime PCR); assay type: cell-based; conditions: Hepatitis B virus, HepG2.117, 72 h
[3] = Cytotoxicity in HepG2 cells, 4 days, Resazurin assay; conditions: human
[4] = HepG2.2.15 cells, 6 days of treatment, secreted virion HBV DNA, read-out: HepG2 2.15 EC50
[5] = HepG2.117 cells, 3 days of treatment, intracellular HBV DNA, read-out: HepG2 117 EC50

Row | Compound | EC50 [1, 4] | EC50 [2, 5] | CC50 at 4 days ([3]; HepG2 cells) | EC50 ([1]; read-out: HepG2 2.15 EC50 (μM)) | EC50 ([2]; read-out: HepG2 117 EC50 (μM)) | CC50 at 4 days [3]
1 | O=C(Nc1cc(F)cc(F)c1)c1cccc(S(=O)(=O)NC2CCCC2)c1 [Compound 15] | 0.28 µM | 0.78 µM | 10.1 µM |  |  | 
2 | Cc1cc(NC(=O)c2cccc(S(=O)(=O)NC3CCCC3)c2)ccc1C#N [Compound 16] | 1.21 µM | 2.8 µM | 10.3 µM |  |  | 
3 | Cc1cccc(NC(=O)c2cc(S(=O)(=O)N3CCCCC3)c(Cl)cc2Cl)c1 [Compound 17] | 0.56 µM | 2.65 µM | > 100 µM |  |  | 
4 | O=C(Nc1ccc(F)cc1)c1cccc(S(=O)(=O)N2CCCC2)c1 [Compound 36] | 4.53 µM | 3.03 µM | 97 µM |  |  | 
5 | CN(C(=O)C1CCCCC1)S(=O)(=O)c1cccc(C(=O)Nc2ccc(F)cc2)c1 [Compound 48] | 2.92 µM | 1.88 µM | 97.2 µM |  |  | 
6 | CN(C)S(=O)(=O)c1ccc(F)c(C(=O)Nc2ccccc2)c1 [Compound 49] | 13.4 µM | 9.15 µM | > 100 µM |  |  | 
7 | O=C(Nc1ccc(C(F)(F)F)cc1)c1cc(S(=O)(=O)NC2CCCC2)ccc1F [Compound 50] | 45.9 µM | 15.8 µM | 11.3 µM |  |  | 
8 | O=C(Nc1ccc(Cl)cc1)c1cc(S(=O)(=O)NC2CCCC2)ccc1F [Compound 51] | 3.98 µM | 9.44 µM | 20.8 µM |  |  | 
9 | O=C(Nc1ccc(F)cc1)c1cc(S(=O)(=O)N2CCC3(CC2)OCCO3)ccc1F [Compound 52] | 1.94 µM | 2.44 µM | > 50 µM |  |  | 
10 | O=C(Nc1ccc(F)cc1)c1cc(S(=O)(=O)NC2CCCC2)ccc1F [Compound 53] | 0.36 µM | 0.44 µM | > 50 µM |  |  | 
11 | O=C(Nc1ccc(F)cc1)c1cc(S(=O)(=O)N2CCCCC2)ccc1Cl [Compound 54] | 1.63 µM | 1.55 µM | > 50 µM |  |  | 
12 | O=C(Nc1ccccc1)c1cccc(S(=O)(=O)NC2CC2)c1 [Compound 55] | 3.06 µM | 3.26 µM | > 100 µM |  |  | 
13 | O=C(Nc1ccc(F)cc1)c1cccc(S(=O)(=O)NC(=O)C2CCCCC2)c1 [Compound 56] | 1.64 µM | 5.45 µM | > 100 µM |  |  | 
14 | O=C(Nc1ccc(F)cc1)c1ccc(S(=O)(=O)N2CCCCC2)o1 [Compound 57] | 15.5 µM | 12.7 µM | 52.1 µM |  |  | 
15 | O=C(Nc1ccccc1)c1ccc(S(=O)(=O)N2CCCCC2)o1 [Compound 58] | 14.6 µM | 19.9 µM | 62.5 µM |  |  | 
16 | O=C(Nc1ccccc1)c1cc(S(=O)(=O)N2CCCCC2)cs1 [Compound 59] | 12.8 µM | 19.3 µM | 46.7 µM |  |  | 
17 | O=C(Nc1ccccc1)c1cc(S(=O)(=O)NC2CCCCC2)cs1 [Compound 60] | 0.85 µM | 0.67 µM | 29.1 µM |  |  | 
18 | O=C(Nc1ccc(F)cc1)c1cc(S(=O)(=O)N2CCCCC2)cs1 [Compound 61] |  |  |  | 7.07 µM | 15.4 µM | 35.7 µM
19 | Cc1[nH]c(C(=O)Nc2ccccc2)c(C)c1S(=O)(=O)N1CCCCC1 [Compound 62] | 7.06 µM | 10.1 µM | > 50 µM |  |  | 

Row | Compound | EC50 [1, 4] | EC50 [2, 5] | CC50 at 4 days ([3]; HepG2 cells) | EC50 ([1]; read-out: HepG2 2.15 EC50 (μM)) | EC50 ([2]; read-out: HepG2 117 EC50 (μM)) | CC50 at 4 days [3]
20 | O=C(Nc1ccccc1)c1c[nH]c(S(=O)(=O)NC2CCCCC2)n1 [Compound 63] | 9.94 µM | 21.1 µM | > 100 µM |  |  | 
21 | O=C(Nc1ccccc1)c1cccc(S(=O)(=O)NC2CCCCC2)n1 [Compound 65] | 10.8 µM | > 25 µM | 35.3 µM |  |  | 
22 | O=C(Nc1ccccc1)c1ccnc(S(=O)(=O)NC2CCCCC2)c1 [Compound 66] | 4.27 µM | 14.5 µM | > 100 µM |  |  | 
23 | O=C(Nc1ccccc1)c1cc(S(=O)(=O)NC2CCCCC2)ccn1 [Compound 67] | 11.1 µM | 18.6 µM | > 100 µM |  |  | 
24 | O=C(Nc1ccccc1)c1cncc(S(=O)(=O)NC2CCCCC2)c1 [Compound 68] | 18.6 µM | > 25 µM | 68 µM |  |  | 
25 | O=C(Nc1ccc(F)cc1)c1cccc(S(=O)(=O)N2CCCCC2=O)c1 [Compound 69] | 3.9 µM | 10.4 µM | > 25 µM |  |  | 
26 | CC[C@@H](C)NS(=O)(=O)c1cccc(C(=O)Nc2ccc(F)cc2)c1 [Compound 70] | 0.34 µM | 0.89 µM | > 25 µM |  |  | 
27 | CC[C@H](C)NS(=O)(=O)c1cccc(C(=O)Nc2ccc(F)cc2)c1 [Compound 71] | 0.75 µM | 8.63 µM | > 25 µM |  |  | 
28 | Cc1cc(NC(=O)c2cccc(S(=O)(=O)N[C@H]3CCOC3)c2)ccc1F [Compound 72] | 0.12 µM | 0.37 µM | > 25 µM |  |  | 
29 | Cc1cc(NC(=O)c2cccc(S(=O)(=O)NC(C)C)c2)ccc1F [Compound 73] | 0.073 µM | 0.15 µM | > 25 µM |  |  | 
30 | CC(C)NS(=O)(=O)c1cccc(C(=O)Nc2ccc(F)c(C(F)(F)F)c2)c1 [Compound 74] | 0.64 µM | 0.53 µM | > 25 µM |  |  | 
31 | N#Cc1cccc(NC(=O)c2cccc(S(=O)(=O)NC3CCCC3)c2)c1 [Compound 75] | 0.39 µM | 0.82 µM | > 25 µM |  |  | 
32 | CC1(NS(=O)(=O)c2cccc(C(=O)Nc3ccc(F)cc3)c2)CCCC1 [Compound 76] | 0.72 µM | 2.5 µM | > 25 µM |  |  | 
33 | O=C(Nc1ccc(F)cc1)c1cc(S(=O)(=O)NC2CCCC2)c(Cl)cc1Cl [Compound 78] | 0.9 µM | 0.65 µM | > 25 µM |  |  | 
34 | CCC(C)(C)NS(=O)(=O)c1cccc(C(=O)Nc2ccc(F)cc2)c1 [Compound 79] | 0.96 µM | 1.69 µM | > 25 µM |  |  | 
35 | N#Cc1ccc(NC(=O)c2cccc(S(=O)(=O)NC3CCCC3)c2)cc1 [Compound 80] | 8.4 µM | 17.9 µM | > 25 µM |  |  | 
36 | O=C(Nc1cccc(C(F)(F)F)c1)c1cccc(S(=O)(=O)NC2CCCC2)c1 [Compound 81] | 0.24 µM | 0.81 µM | 15.3 µM |  |  | 
37 | Cc1cc(C#N)cc(NC(=O)c2cccc(S(=O)(=O)NC3CCCC3)c2)c1 [Compound 82] | 1.2 µM | 3.13 µM | > 25 µM |  |  | 
38 | CC(C)NS(=O)(=O)c1cccc(C(=O)Nc2ccc(F)c(C3CC3)c2)c1 [Compound 84] | 0.32 µM | 0.91 µM | > 25 µM |  |  | 

Row | Compound | EC50 [1, 4] | EC50 [2, 5] | CC50 at 4 days ([3]; HepG2 cells) | EC50 ([1]; read-out: HepG2 2.15 EC50 (μM)) | EC50 ([2]; read-out: HepG2 117 EC50 (μM)) | CC50 at 4 days [3]
39 | CCC1(NS(=O)(=O)c2cccc(C(=O)Nc3ccc(F)c(C)c3)c2)CC1 [Compound 85] | 0.05 µM | 0.38 µM | > 25 µM |  |  | 
40 | CCC(C)(C)NS(=O)(=O)c1cccc(C(=O)Nc2ccc(F)c(C)c2)c1 [Compound 86] | 0.14 µM | 0.11 µM | > 25 µM |  |  | 
41 | CCC1(NS(=O)(=O)c2cccc(C(=O)Nc3ccc(F)cc3)c2)CC1 [Compound 87] | 0.41 µM | 0.89 µM | > 25 µM |  |  | 
42 | CC(C)NS(=O)(=O)c1cccc(C(=O)Nc2ccc(F)c(F)c2)c1 [Compound 88] | 0.21 µM | 0.4 µM | > 25 µM |  |  | 
43 | CCC1(NS(=O)(=O)c2cccc(C(=O)Nc3ccc(F)cc3)c2)COC1 [Compound 89] | 0.54 µM | 0.72 µM | > 25 µM |  |  | 
44 | O=C(Nc1ccc(F)c(F)c1)c1cccc(S(=O)(=O)N[C@H]2CCOC2)c1 [Compound 90] | 0.38 µM | 0.51 µM | > 25 µM |  |  | 
45 | C#Cc1cc(NC(=O)c2cccc(S(=O)(=O)NC(C)C)c2)ccc1F [Compound 91] | 0.53 µM | 0.77 µM | > 25 µM |  |  | 
46 | CCc1cc(NC(=O)c2cccc(S(=O)(=O)NC(C)C)c2)ccc1F [Compound 92] | 0.31 µM | 2.59 µM | > 25 µM |  |  | 
47 | CCC1(NS(=O)(=O)c2cccc(C(=O)Nc3ccc(F)c(C)c3)c2)COC1 [Compound 93] | 0.07 µM | 0.22 µM | > 25 µM |  |  | 
48 | Cc1cc(NC(=O)c2cccc(S(=O)(=O)NC3(C)CC3)c2)ccc1F [Compound 94] | 0.15 µM | 0.23 µM | > 25 µM |  |  | 
49 | CC(C)NS(=O)(=O)c1cccc(C(=O)Nc2ccc(F)c(C(C)C)c2)c1 [Compound 95] | 1.4 µM | 2.79 µM | > 25 µM |  |  | 
50 | CC(C)NS(=O)(=O)c1cccc(C(=O)Nc2ccc(F)c(C(F)F)c2)c1 [Compound 96] | 0.1 µM | 0.29 µM | > 25 µM |  |  | 
51 | Cc1cc(NC(=O)c2cccc(S(=O)(=O)NC3(C)COC3)c2)ccc1F [Compound 97] | 0.12 µM | 0.37 µM | > 25 µM |  |  | 
52 | CC[C@@H](C)NS(=O)(=O)c1cccc(C(=O)Nc2ccc(F)c(C)c2)c1 [Compound 98] | 0.1 µM | 0.31 µM | > 25 µM |  |  | 
53 | Cc1cc(NC(=O)c2cccc(S(=O)(=O)NC(C)C)c2)cc(F)c1F [Compound 99] | 0.09 µM | 0.46 µM | > 25 µM |  |  | 
54 | CC[C@@H](C)NS(=O)(=O)c1ccc(F)c(C(=O)Nc2ccc(F)c(F)c2)c1 [Compound 100] | 0.13 µM | 0.43 µM | > 25 µM |  |  | 
55 | O=C(Nc1ccc(F)c(F)c1)c1cc(S(=O)(=O)N[C@H]2CCOC2)ccc1F [Compound 101] | 0.43 µM | 1.51 µM | > 25 µM |  |  | 
56 | O=C(Nc1ccc(F)c(C(F)F)c1)c1cccc(S(=O)(=O)N[C@H]2CCOC2)c1 [Compound 102] | 0.18 µM | 0.33 µM | > 25 µM |  |  | 
57 | N#Cc1cc(NC(=O)c2cccc(S(=O)(=O)N[C@H]3CCOC3)c2)ccc1F [Compound 105] | 0.81 µM | 0.98 µM | > 25 µM |  |  | 
